Assay results published in publication PMC3639963, “A New Class of Small Molecule Inhibitor of BMP Signaling” (PLoS ONE, 2013).

Assays:
Assay in all cases: Nanosyn kinase profiling
Type in all cases: biochemical
Details in all cases: read-out: Percentage inhibition; for inhibition at 0.1 µM: 0.1 µM inhibitor; for inhibition at 1 µM: 1 µM inhibitor
[1] = biological target: T1, CAMK4 (Homo sapiens, UniProt Q16566)
T1 construct: purchased Nanosyn (enzymatic panel); SGC in-house recombinant human kinases (DSF panel); Invitrogen (ALK1-6)
T1 sequence (Q16566 1-473): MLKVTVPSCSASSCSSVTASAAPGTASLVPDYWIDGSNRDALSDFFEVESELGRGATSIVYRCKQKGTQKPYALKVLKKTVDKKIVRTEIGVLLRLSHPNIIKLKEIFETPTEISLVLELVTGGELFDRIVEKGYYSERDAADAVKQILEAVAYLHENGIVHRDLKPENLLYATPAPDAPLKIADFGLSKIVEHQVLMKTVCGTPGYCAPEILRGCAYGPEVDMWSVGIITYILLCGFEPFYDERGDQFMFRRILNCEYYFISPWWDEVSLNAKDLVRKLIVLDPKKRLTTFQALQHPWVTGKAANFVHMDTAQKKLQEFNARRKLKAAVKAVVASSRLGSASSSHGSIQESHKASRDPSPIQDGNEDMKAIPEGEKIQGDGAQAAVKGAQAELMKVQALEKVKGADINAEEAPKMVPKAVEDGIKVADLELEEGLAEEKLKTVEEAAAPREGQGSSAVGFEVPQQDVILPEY
In short: (§1)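 Percent inhibition of each kinase was measured with the inhibitor at 0.1 µM and at 1 µM, as part of a 200-kinase human selectivity panel.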

[2] = biological target: T2, PAK3 (Homo sapiens, UniProt O75914)
T2 construct: purchased Nanosyn (enzymatic panel); SGC in-house recombinant human kinases (DSF panel); Invitrogen (ALK1-6)
In short: as §1

[3] = biological target: T3, PASK (Homo sapiens, UniProt Q96RG2)
T3 construct: purchased Nanosyn (enzymatic panel); SGC in-house recombinant human kinases (DSF panel); Invitrogen (ALK1-6)
In short: as §1

[4] = biological target: T4, PHKγ2 (Homo sapiens, UniProt P15735)
T4 construct: purchased Nanosyn (enzymatic panel); SGC in-house recombinant human kinases (DSF panel); Invitrogen (ALK1-6)
T4 sequence (P15735 1-406): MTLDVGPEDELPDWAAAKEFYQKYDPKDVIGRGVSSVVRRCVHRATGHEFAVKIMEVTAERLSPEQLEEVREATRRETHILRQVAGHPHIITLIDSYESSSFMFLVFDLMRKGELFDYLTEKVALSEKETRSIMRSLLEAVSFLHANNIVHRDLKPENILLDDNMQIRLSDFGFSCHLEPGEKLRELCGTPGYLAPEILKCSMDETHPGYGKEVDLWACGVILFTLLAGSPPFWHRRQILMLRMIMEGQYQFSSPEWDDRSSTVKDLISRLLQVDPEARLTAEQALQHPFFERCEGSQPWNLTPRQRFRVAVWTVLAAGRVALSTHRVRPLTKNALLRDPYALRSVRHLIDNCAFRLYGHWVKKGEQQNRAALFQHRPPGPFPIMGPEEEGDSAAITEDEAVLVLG
In short: as §1

[5] = biological target: T5, PRKD1 (Homo sapiens, UniProt Q15139)
T5 construct: purchased Nanosyn (enzymatic panel); SGC in-house recombinant human kinases (DSF panel); Invitrogen (ALK1-6)
T5 sequence (Q15139 1-912): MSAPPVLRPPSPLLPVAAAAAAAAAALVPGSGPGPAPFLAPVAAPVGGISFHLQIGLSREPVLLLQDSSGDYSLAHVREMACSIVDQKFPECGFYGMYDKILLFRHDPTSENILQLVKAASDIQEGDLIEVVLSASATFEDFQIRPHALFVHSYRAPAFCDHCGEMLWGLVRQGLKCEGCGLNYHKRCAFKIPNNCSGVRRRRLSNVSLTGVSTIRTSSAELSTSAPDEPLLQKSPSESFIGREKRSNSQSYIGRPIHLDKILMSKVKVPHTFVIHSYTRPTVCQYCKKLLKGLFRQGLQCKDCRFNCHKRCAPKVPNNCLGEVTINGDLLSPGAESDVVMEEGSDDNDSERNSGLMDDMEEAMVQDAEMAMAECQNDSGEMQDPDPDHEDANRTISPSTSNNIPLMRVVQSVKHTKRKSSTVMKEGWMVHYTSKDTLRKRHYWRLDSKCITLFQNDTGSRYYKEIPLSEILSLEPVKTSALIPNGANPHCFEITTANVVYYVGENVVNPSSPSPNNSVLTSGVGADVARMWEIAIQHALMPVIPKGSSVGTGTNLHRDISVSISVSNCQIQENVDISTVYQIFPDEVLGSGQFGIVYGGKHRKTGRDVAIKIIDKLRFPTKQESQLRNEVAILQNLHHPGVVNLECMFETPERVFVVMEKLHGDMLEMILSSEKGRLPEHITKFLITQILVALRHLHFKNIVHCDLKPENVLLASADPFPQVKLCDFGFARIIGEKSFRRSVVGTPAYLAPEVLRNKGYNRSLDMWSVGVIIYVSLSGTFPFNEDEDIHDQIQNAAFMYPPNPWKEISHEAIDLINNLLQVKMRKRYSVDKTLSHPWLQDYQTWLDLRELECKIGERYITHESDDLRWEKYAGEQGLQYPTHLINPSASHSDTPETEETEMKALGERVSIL
In short: as §1

[6] = biological target: T6, PTK5 (Homo sapiens, UniProt P42685)
T6 construct: purchased Nanosyn (enzymatic panel); SGC in-house recombinant human kinases (DSF panel); Invitrogen (ALK1-6)
In short: as §1

[7] = biological target: T7, ROCK2 (Homo sapiens, UniProt O75116)
T7 construct: purchased Nanosyn (enzymatic panel); SGC in-house recombinant human kinases (DSF panel); Invitrogen (ALK1-6)
In short: as §1

T7 sequence (O75116 whole entry): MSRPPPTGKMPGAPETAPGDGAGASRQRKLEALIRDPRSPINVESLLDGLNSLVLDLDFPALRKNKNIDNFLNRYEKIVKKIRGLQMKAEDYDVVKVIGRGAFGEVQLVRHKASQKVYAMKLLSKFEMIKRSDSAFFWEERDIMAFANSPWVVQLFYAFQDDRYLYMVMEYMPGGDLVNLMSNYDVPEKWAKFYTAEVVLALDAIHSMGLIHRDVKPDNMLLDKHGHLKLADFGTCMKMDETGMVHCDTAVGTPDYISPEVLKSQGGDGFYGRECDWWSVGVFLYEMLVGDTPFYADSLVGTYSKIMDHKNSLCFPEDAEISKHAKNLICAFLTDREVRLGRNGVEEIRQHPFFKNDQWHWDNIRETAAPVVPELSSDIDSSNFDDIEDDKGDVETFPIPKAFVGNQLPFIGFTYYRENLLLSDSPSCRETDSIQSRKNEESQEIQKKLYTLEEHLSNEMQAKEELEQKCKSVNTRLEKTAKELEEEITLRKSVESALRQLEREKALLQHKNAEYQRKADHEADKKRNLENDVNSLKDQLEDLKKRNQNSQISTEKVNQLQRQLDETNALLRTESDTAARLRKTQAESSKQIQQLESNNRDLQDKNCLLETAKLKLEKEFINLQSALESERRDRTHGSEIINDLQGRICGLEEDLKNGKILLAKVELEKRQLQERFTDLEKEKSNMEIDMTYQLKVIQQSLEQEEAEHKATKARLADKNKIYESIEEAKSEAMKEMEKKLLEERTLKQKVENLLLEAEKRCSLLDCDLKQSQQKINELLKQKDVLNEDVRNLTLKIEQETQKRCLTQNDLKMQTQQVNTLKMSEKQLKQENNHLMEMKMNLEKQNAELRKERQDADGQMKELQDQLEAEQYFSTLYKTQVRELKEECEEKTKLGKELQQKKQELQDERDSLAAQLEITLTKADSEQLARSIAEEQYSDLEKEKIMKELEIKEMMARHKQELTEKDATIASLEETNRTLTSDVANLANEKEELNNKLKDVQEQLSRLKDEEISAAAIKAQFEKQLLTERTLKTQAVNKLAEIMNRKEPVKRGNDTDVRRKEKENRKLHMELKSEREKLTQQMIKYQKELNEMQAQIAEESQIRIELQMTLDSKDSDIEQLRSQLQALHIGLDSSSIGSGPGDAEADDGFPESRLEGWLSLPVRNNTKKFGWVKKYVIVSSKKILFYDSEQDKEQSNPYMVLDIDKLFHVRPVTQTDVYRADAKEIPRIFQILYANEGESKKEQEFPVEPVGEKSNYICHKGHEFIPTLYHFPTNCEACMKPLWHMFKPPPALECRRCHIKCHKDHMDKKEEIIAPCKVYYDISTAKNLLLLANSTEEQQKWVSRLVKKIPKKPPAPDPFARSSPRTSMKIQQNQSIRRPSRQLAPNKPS
T6 sequence (P42685 whole entry): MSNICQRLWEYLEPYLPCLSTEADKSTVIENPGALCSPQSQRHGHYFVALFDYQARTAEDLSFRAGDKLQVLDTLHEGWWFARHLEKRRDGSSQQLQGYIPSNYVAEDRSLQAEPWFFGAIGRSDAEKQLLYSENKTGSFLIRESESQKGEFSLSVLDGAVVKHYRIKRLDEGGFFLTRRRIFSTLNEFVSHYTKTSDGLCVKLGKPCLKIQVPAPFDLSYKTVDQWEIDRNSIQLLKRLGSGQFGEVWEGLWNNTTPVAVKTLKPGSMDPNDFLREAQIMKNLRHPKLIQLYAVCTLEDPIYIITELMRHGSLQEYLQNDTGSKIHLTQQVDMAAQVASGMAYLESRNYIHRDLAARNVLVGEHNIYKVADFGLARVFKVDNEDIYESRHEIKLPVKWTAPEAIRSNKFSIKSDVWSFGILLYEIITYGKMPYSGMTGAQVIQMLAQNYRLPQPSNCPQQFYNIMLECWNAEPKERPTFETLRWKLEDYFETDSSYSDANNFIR
T2 sequence (O75914 whole entry): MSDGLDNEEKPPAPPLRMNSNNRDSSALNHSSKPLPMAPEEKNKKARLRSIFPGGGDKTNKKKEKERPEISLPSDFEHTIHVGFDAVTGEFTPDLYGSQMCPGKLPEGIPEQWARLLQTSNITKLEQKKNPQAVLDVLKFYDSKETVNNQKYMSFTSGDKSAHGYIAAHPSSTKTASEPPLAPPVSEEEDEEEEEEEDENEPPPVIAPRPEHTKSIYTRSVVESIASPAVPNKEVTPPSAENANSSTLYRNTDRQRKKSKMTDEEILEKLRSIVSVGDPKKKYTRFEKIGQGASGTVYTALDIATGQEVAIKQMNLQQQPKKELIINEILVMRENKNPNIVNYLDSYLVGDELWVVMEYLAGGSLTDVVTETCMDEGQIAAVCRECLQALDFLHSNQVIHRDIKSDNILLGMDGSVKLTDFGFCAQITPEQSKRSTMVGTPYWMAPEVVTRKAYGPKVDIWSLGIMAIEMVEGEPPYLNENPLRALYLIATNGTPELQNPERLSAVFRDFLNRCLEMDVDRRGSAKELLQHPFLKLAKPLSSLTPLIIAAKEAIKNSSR
T3 sequence (Q96RG2 whole entry): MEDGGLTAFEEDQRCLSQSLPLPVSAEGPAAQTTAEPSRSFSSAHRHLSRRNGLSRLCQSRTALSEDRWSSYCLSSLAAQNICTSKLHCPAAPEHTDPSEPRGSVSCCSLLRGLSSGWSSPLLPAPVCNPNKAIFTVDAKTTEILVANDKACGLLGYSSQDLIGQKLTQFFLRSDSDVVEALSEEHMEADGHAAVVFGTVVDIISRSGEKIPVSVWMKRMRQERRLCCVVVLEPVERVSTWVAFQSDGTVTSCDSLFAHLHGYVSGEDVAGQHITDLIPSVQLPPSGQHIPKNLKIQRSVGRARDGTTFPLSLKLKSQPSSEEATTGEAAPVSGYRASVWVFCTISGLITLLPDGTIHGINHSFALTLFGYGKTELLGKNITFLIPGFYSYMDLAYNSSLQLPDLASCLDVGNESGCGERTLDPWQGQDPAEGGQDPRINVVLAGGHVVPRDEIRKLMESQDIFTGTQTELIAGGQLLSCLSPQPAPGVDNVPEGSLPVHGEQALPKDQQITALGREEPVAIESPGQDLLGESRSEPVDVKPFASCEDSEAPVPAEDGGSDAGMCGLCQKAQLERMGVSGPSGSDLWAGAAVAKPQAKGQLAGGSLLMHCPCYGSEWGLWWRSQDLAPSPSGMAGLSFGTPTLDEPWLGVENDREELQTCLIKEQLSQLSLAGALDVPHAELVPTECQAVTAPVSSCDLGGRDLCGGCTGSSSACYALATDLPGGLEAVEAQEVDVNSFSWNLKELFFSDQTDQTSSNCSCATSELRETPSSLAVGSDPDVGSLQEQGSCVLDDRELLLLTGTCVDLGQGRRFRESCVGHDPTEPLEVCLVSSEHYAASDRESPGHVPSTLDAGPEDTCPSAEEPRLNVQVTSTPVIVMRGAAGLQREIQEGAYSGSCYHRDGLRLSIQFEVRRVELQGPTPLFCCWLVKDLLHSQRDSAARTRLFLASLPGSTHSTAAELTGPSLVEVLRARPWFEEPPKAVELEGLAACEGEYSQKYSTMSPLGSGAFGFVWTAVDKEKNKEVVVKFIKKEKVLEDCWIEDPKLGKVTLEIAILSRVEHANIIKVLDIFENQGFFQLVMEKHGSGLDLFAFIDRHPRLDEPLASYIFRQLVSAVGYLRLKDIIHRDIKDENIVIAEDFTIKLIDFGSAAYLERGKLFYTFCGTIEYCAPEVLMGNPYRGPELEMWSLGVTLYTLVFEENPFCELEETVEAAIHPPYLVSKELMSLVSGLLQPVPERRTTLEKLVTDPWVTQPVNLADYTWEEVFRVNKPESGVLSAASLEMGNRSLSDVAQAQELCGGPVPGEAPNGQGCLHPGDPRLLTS

Compound | inhibition at 0.1 µM [1] [%] | inhibition at 1 µM [1] [%] | inhibition at 0.1 µM [2] [%] | inhibition at 1 µM [2] [%] | inhibition at 0.1 µM [3] [%] | inhibition at 1 µM [3] [%] | inhibition at 0.1 µM [4] [%] | inhibition at 1 µM [4] [%] | inhibition at 0.1 µM [5] [%] | inhibition at 1 µM [5] [%] | inhibition at 0.1 µM [6] [%] | inhibition at 1 µM [6] [%] | inhibition at 0.1 µM [7] [%] | inhibition at 1 µM [7] [%]
COc1cc(-c2cc(-c3cccc(O)c3)cnc2N)cc(OC)c1OC [K02288, 3-[6-amino-5-(3,4,5-trimethoxy-phenyl)-pyridin-3-yl]-phenol] | -1 | -1 | -3 | -2 | 1.1 | 0.6 | -3 | -3 | 0 | 6.1 | 2.2 | 22 | -1 | 0.8
c1ccc2c(-c3cnn4cc(-c5ccc(N6CCNCC6)cc5)cnc34)ccnc2c1 [LDN-193189] | 0.1 | 0 | 2.9 | 1.8 | 1.9 | 1.4 | 3.5 | 4.9 | 4.6 | 15 | 4.1 | 14 | 1.4 | 1.5
